Values quoted from earlier work as cited in patent US12678540B2, “Chimeric peptide-modified SIS membrane, preparation method therefor and application thereof” (Beijing Biosis Healing Biological Technology Co., Ltd., priority 2021, dated 2026).

System: fibroblasts, epithelial cells and endothelial cells

Hst1: member of the histatins (HSTs); sequence SHREFPFYGDYGS contains minimal elements to promote cell migration
migration or adhesion of fibroblasts, epithelial cells and endothelial cells: promote the migration or adhesion
